The record followed here is patent US8288398B2, “Antiproliferative pyrimidyl, fused pyrimidyl and pyrimidyl hydrazones” (Merck Serono SA, priority 2005, dated 2012).

Holding throughout (assay type): cell-based
The subject of assay [1] is Colon cancer (C26, murine) cells. The assay is described as follows: Tumor cell proliferation assay (ATP-lite), C26. The note with it: Mus musculus, 96 h, inhibition of tumor cell growth by 50%, 4 days incubation, ATP-lite readout. The procedure:
(§1) Assay 1: Tumor Cell Proliferation Assay:
(§2) Colon cancer (C26, murine), pancreatic cancer (MiaPaCa-2, human) cells were plated in 96-well white plates (Cat. No. 3917, Corning, Inc.) at 2.5×10^3 cells/well and cultured overnight at 37° C. in 5% CO2 in DMEM containing 10% FCS. Inhibitors were serially diluted in 100% DMSO and subsequently added to cells to reach a final concentration of 0.25% DMSO. Cell plates were incubated for an additional 4 days at 37° C. and 5% CO2 and cell proliferation was quantitated using the ATP-lite cell proliferation kit (Cat. No. 6016943, Perkin Elmer).
(§3) The ATPlite kit quantifies the ATP released from lysed cells by the generation of light caused by the reaction of the released ATP with the Luciferase and D-Luciferin contained in the kit. After the 4th day of incubation, the media is removed from the cell plates and replaced with 100 μL of PBS followed by 50 μL of the lysis solution. The plates are then shaken for 5 minutes on an orbital shaker followed by the addition of 50 μL of substrate solution. The plates are shaken for an additional 5 minutes followed by dark adaptation for 10 minutes and finally read on a Victor^3 V plate reader (1 second/well, Cat. No. 1420-041, Perkin Elmer).
(§4) Columns 2-3 show the concentration of compounds required to inhibit the growth of tumor cells by 50% (IC50 in μM).

Assay [2] concerns pancreatic cancer (MiaPaCa-2, human) cells. The assay can be described thus: Tumor cell proliferation assay (ATP-lite), MiaPaCa-2. The settings on record: MIA PaCa-2, 96 h; inhibition of tumor cell growth by 50%; MiaPaCa-2 human pancreatic cancer cells; 4 days incubation; ATP-lite readout. The procedure:
as §1, §2, §3, §4

In assay [3] the test system is Human umbilical vein endothelial cells (HUVEC). The assay is described as follows: Endothelial tube formation assay. The note with it: 50% reduction in total endothelial tube length, HUVEC on Matrigel, overnight culture. The procedure:
Assay 2: Endothelial Tube Formation Assay
Human umbilical vein endothelial cells (HUVEC) (Cascade Biologics #C-003-5C) were plated into 96-well black clear-bottom microplates (Cat. No. 3603, Corning, Inc.) containing 50 uL/well of BD Matrigel Basement Membrane Matrix (BD Biosciences #354234) at 7.5×10^3 cells/well. Inhibitors were serially diluted in 100% DMSO and subsequently added to cells to reach a final concentration of 0.5% DMSO and the plates cultured overnight at 37° C., 5% CO2 in (EGM™-2 MV) (Cambrex #CC-3202). […] Cell plates were incubated in the dark at 37° C., 5% CO2 for 10 minutes and then immediately imaged and quantitated on the Discovery—1 automated microscope (Molecular Devices Corp.) to determine the total endothelial tube length. The total endothelial tube length is calculated using the Angiogenesis image algorithm supplied with the MetaMorph software package (Molecular Devices Corp). […] The binary image is then analyzed to remove objects that are not part of the endothelial tube network, such as cell clumps or debris. Finally, the corrected binary image is processed to reduce the tubes to single pixel width from which the total tube length is calculated. […]

One may read the IC50 as the concentration that gives 50% inhibition. Read a high IC50 as weaker potency in that assay. For `CC(=NN(C)c1nc(C(F)(F)F)nc2ccccc12)c1ccc(C)cc1` [Compound 2], the IC50 in assay [1], in assay [2] and in assay [3] was less than 1 µM each time.

For `CC(=NN(C)c1nc(C)nc2ccccc12)c1ccc(C)cc1` [Compound 7, N-Methyl-N-(2-methyl-quinazolin-4-yl)-N-(1-p-tolyl-ethylidene)-hydrazine], the concentration for half-maximal inhibition (IC50) in assay [1], in assay [2] and in assay [3] was less than 1 µM in each case.

For the compound `COc1ccccc1-c1cc(NN=C(C)c2ccc(C)cc2)nc(C)n1` [Compound 29, N-[6-(2-Methoxy-phenyl)-2-methylpyrimidin-4-yl]-N′-[1-p-tolyl-ethylidene]-hydrazine], the 50% inhibitory concentration (IC50) in assay [1] and in assay [2] was less than 1 µM throughout.

Regarding `CC(=NNc1cc(-c2ccccc2C#N)nc(C)n1)c1ccc(C)cc1` [Compound 31, 2-(2-Methyl-6-{N′-[1-p-tolyl-ethylidene]-hydrazino}-pyrimidin-4-yl)-benzonitrile], the 50% inhibitory concentration (IC50) in assay [1] and in assay [2] was less than 1 µM throughout.

Turning to `CC(=NNc1cc(-c2ccccc2C)nc(C)n1)c1ccc(C)cc1` [Compound 32, N-[6-(2-methyl-phenyl)-2-methyl-pyrimidin-4-yl]-N′-[1-p-tolyl-ethylidene]-hydrazine], the IC50 in assay [1] and in assay [2] was less than 1 µM throughout.

Take `CC(=NNc1cc(-c2ccccc2N2CCOCC2)nc(C)n1)c1ccc(C)cc1` [Compound 33, N-[2-Methyl-6-(2-morpholin-4-yl-phenyl)-pyrimidin-4-yl]-N′-[1-p-tolyl-ethylidene]-hydrazine]: the results for the IC50 in assay [1] and in assay [2] were 1 to 15 µM and less than 1 µM, respectively.

Consider `CC(=O)Nc1ccccc1-c1cc(NN=C(C)c2ccc(C)cc2)nc(C)n1` [Compound 34, N-[2-(2-Methyl-6-{N′-[1-p-tolyl-ethylidene]-hydrazino}-pyrimidin-4-yl)-phenyl]-acetamide], for which the half-inhibitory concentration (IC50) in assay [1] and in assay [2] was less than 1 µM throughout.

Consider `CC(=NNc1cc(-c2ccccc2CO)nc(C)n1)c1ccc(C)cc1` [Compound 35, [2-(2-Methyl-6-{N′-[1-p-tolyl-ethylidene]-hydrazino}-pyrimidin-4-yl)-phenyl]-methanol], for which the half-maximal inhibitory concentration (IC50) in assay [1] and in assay [2] was less than 1 µM throughout.

Regarding `CC(=NNc1cc(-c2c(C)noc2C)nc(C)n1)c1ccc(C)cc1` [Compound 36, N-[6-(3,5-Dimethyl-isoxazol-4-yl)-2-methyl-pyrimidin-4-yl]-N′-[1-p-tolyl-ethylidene]-hydrazine], the IC50 in assay [1] and in assay [2] was less than 1 µM each time.

On to `CC(=NNc1cc(-c2ccccc2N)nc(C)n1)c1ccc(C)cc1` [Compound 38, 2-(2-Methyl-6-{N′-[1-p-tolyl-ethylidene]-hydrazino}-pyrimidin-4-yl)-phenylamine], for which the IC50 in assay [1] and in assay [2] was less than 1 µM throughout.

For the compound `CC(=NN(C)c1cc(-c2ccccc2)nc(C)n1)c1ccc(C)cc1` [Compound 39, N-Methyl-N-(2-methyl-6-phenyl-pyrimidin-4-yl)-N′-[1-p-tolyl-ethylidene]-hydrazine], the 50% inhibitory concentration (IC50) in assay [1] and in assay [2] was less than 1 µM each time.

`COc1cccc(OC)c1-c1cc(NN=C(C)c2ccc(C)cc2)nc(C)n1` [Compound 40, N-[6-(2,6-Dimethoxy-phenyl)-2-methyl-pyrimidin-4-yl]-N′-[1-p-tolyl-ethylidene]-hydrazine]: the IC50 in assay [1] and in assay [2] was less than 1 µM in each case.

`CC(=NNc1cc(-c2ccccc2)nc(C)n1)c1ccc(C)cc1` [Compound 41, N-(2-Methyl-6-phenyl-pyrimidin-4-yl)-N′-(1-p-tolyl-ethylidene)-hydrazine]: the IC50 in assay [1] and in assay [2] was less than 1 µM throughout.

As for `CC(=NNc1cc(-c2ccccc2)nc(C)n1)c1ccc(N)cc1` [Compound 42, 4-{1-[(2-Methyl-6-phenyl-pyrimidin-4-yl)-hydrazono]-ethyl}-phenylamine], the IC50 in assay [1] and in assay [2] was 1 to 15 µM each time.
